Earlier results, collected in patent publication US20070141015A1, “TOPICAL ADMINISTRATION CARRIER COMPOSITION AND THERAPEUTIC FORMULATIONS COMPRISING SAME” (priority 2005, published 2007).

[1] = antihypertensive use, chronic 30 mg/day

steady-state peak level [1]: 250 ng/mL
steady-state trough level [1]: 40 ng/mL
plasma level (topical hair growth stimulant, 1 mL 2% b.i.d. dose): Less than 2-30 ng/ML plasma.
Structure (SMILES): Nc1cc(N2CCCCC2)nc(N)[n+]1[O-] [Minoxidil]
1 hour peak plasma level (antihypertensive use, after 5 mg starting dose): Antihypertensive: 1 hour peak after 5 mg starting dose: 60 ng/mL plasma;
